# Assay results: US7879792B2, “Synthetic peptide inhibitors of thrombin and thrombin activation of protease activated receptors 1 and 4” (The Regents of the University of Michigan, priority 2005, dated 2011)
# Where a SMILES comes first, the peptide text is derived from it.
# Columns and labels:
# [1] = tested on: γ-thrombin-induced platelet aggregation; test: γ-thrombin-induced platelet aggregation in human platelet-rich plasma; format: cell-based; conditions: for Concentration of Peptide [mM] That Gives 100% Inhibition: 40 nM human gamma thrombin, human platelet-rich plasma
# Description: Fresh whole blood was collected and mixed with 0.013 M sodium citrate and platelet-rich plasma was prepared according to the method of Meloni et al., J. Biol. Chem. 266, 6786 (1991). Platelet-rich plasma with a normalized platelet count between 2-2.5×10^8 platelets/ml was added to a cuvette of an aggregometer (Chronlog Corp., Havertown, Pa.), standardized using the protocol of Meloni et al., supra. Peptides to be examined were added to the cuvette and the mixture stabilized for a few moments. Once the baseline was stabilized, γ-thrombin (10-70 nM) (Haematologic Technologies, Essex Junction, Vt.) was added to determine the minimal concentration of the agonist necessary to achieve full platelet aggregation. All investigations with peptides were performed using threshold concentrations of γ-thrombin. Aggregation was allowed to proceed for 5 minutes before stopping.
# Table III is a tabulation of the library of peptides prepared and their influence on γ-thrombin-induced platelet aggregation in platelet-rich plasma. […] The numbers in the column represent the minimal concentration (mM) of the peptide that blocked 100% γ-thrombin-induced platelet aggregation of platelets in human platelet-rich plasma.
# Human platelet samples were stimulated with 40 nM human gamma thrombin in each experiment.
# [2] = target: T1, recombinant extracellular domain of human PAR1 (rPAR1EC) (Homo sapiens, UniProt P25116); test: inhibition of RPPGFK-biotin binding to rPAR1EC; conditions: 15 μM RPPGFK-biotin
# T1 construct: A portion of the extracellular domain of human PAR1 (Ala^26-Ser^99) (rPAR1EC) was expressed in Escherichia coli; KSI fusion protein (cleaved yes); His tag (cleaved yes); made in house; host or cells: E. coli BL21(DE3), pET31b
# T1 sequence (P25116 26-99): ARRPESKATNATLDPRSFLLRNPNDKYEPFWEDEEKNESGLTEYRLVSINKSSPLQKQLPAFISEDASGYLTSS
# [3] = target: T2, recombinant extracellular domain of human PAR4 (rPAR4EC) (Homo sapiens, UniProt Q96RI0); test: inhibition of RPPGFK-biotin binding to rPAR4EC; conditions: 15 μM RPPGFK-biotin
# T2 construct: starting with Gly^18, the first amino acid after the signal peptide is removed, and finishing with Arg^78; KSI fusion protein (N, cleaved yes); His-tag (N, cleaved yes); made in house; host or cells: E. coli 'BLD (DE3)' cells, pET31b; cDNA from HEL cell mRNA
# T2 sequence (Q96RI0 18-78): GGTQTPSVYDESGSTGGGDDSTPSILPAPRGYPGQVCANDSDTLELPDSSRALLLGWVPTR
# Description: Investigations were performed to determine if the compounds in the present invention interact with the exodomain of human PAR4. The extracellular fragment of human PAR4 has been expressed in bacteria. Human erythroleukemia (HEL) cells were used as a source for PAR4 mRNA. The level of PAR4 mRNA was substantially higher in HEL cells than washed human platelets. […] These primers give a 204 basepair fragment which codes for a 61 amino acid hPAR4 protein starting with Gly^18, the first amino acid after the signal peptide is removed, and finishing with Arg^78, the last amino acid of the extracellular fragment (Xu et al. Proc. Natl. Acad. Sci. 95, 6642-6646 (1998)). The pET31b-PAR4 vector after cloning was used to transform BLD (DE3) cells to express the recombinant protein. After IPTG stimulation, the recombinant protein was isolated from the bacterial lysate on a nickel affinity column followed by treatment with CNBr to remove the KSI fusion protein and His-tag on its amino terminal end. The isolated recombinant extracellular domain of PAR4 (rPAREC) is about 9 kDa on 16.5% Tris-Tricine SDS-PAGE. The recombinant protein is recognized as being human PAR4 by detection with an antibody prepared from a peptide (S^41[…]^52) (SEQ ID NO:9) from human PAR4EC. Recombinant PAR4EC was linked to microtiter plate cuvette wells. Goat polyclonal antibody to human PAR1, PAR3, or PAR4 was incubated with the coated microtiter plate cuvette wells and antibody binding was detected. Only antibody to PAR4 detected rPAR4EC linked to the microtiter plate wells. […] These studies indicate that peptides of the present invention also physically interact with human PAR4.
# [4] = target: γ-thrombin; test: inhibition of γ-thrombin hydrolysis of chromogenic substrate; format: biochemical, human; conditions: read-out: Ki (μM) + SD, γIIa (2 nM); gamma-thrombin 2 nM, Sar-Pro-Arg-paranitroanilide
Compound,Concentration of Peptide [mM] That Gives 100% Inhibition [1] [mM],RPPGFK-biotin displaced from rPAR1 exodomain ([2]; 1000 μM (1 mM) peptide) [%],RPPGFK-biotin displaced from rPAR4 exodomain ([3]; 1 μM peptide (so in the source)) [%],concentration that abolished γ-thrombin-induced platelet aggregation ([1]; 40 nM γ-thrombin),"γ-thrombin-induced platelet aggregation ([1]; 8 μM peptide, 40 nM γ-thrombin)",RPPGFK-biotin displaced from rPAR1 exodomain ([2]; 30 μM peptide) [%],RPPGFK-biotin displaced from rPAR1 exodomain ([2]; 300 μM peptide) [%],RPPGFK-biotin displaced from rPAR4 exodomain ([3]; 30 μM peptide) [%],RPPGFK-biotin displaced from rPAR4 exodomain ([3]; 300 μM peptide) [%],RPPGFK-biotin displaced from rPAR4 exodomain ([3]; 1000 μM peptide) [%],Ki [4] [µM]
"N=C(N)NCCC[C@@H](N)C(=O)N1[C@H](C(=O)N2CCC[C@H]2C(=O)NCC(=O)N[C@@H](Cc2ccccc2)C(N)=O)C[C@@H]2CCCC[C@@H]21 [rOicPGF, D-Arg-Oic-Pro-Gly-Phe, reference compound] (HELM PEPTIDE1{[dR].[O=C([C@@H]1C[C@@H]2CCCC[C@@H]2N1[*:1])[*:2]].P.G.F.[am]}$$$$V2.0)",0.142,50,50,,,,,,,,
"Cc1ccc(C[C@H](NC(=O)[C@@H](C)NC(=O)[C@@H]2CCCN2C(=O)[C@@H]2C[C@@H]3CCCC[C@@H]3N2C(=O)[C@H](N)CCCNC(=N)N)C(N)=O)cc1 [rOicPaF(p-Me), D-Arg-Oic-Pro-D-Ala-Phe(p-Me)] (HELM PEPTIDE1{[dR].[O=C([C@@H]1C[C@@H]2CCCC[C@@H]2N1[*:1])[*:2]].P.[dA].[Cc1ccc(C[C@H](N[*:1])C(=O)[*:2])cc1].[am]}$$$$V2.0)",0.016,69,,greater than or equal to 16 μM,returned to normal,23,52,19,49,63,54.3 ± 16
